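Exposure lasted 48 hours, with cells grown in 96-well plates and compounds tested at five concentrations. TGI marks complete inhibition of growth.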

Drawing on PubChem BioAssay (NCI), this text covers TGI for 33 compounds.

What all share (test): DTP human tumour cell line panel, 48 h
The subject of assay [1] is MCF7 breast.
In assay [2] the test system is U251 CNS.
Assay [3] concerns LOX IMVI melanoma.

Broadly, the TGI is the concentration at which net growth stops. A lower TGI goes with more potent growth arrest. As to `O=CC1C(Cl)=Nc2nc3ccccc3n2C1c1ccccc1` (stereo unspecified), the concentration for total growth inhibition (TGI) in assay [1] is 42.7 µM; in assay [2], 33.7 µM; in assay [3], 29 µM.
As for `COC(=O)CN1C(=O)C2(C(=O)OC)OC1(c1ccc([N+](=O)[O-])cc1)C1C(=O)N(c3ccccc3)C(=O)C12` (stereo unspecified), the TGI in assay [2] and in assay [3] was above 100 µM in each case.
As for `CC(C)OC(=O)[C@H]1ON2O[C@H](O[C@@H]3CCCC[C@H]3c3ccccc3)C([Si](C)(C)c3ccccc3)[C@H]3OC(=O)[C@@H]1C32` (stereo partly specified), the total growth inhibition concentration (TGI) in assay [1], in assay [2] and in assay [3] was above 100 µM each time.
Regarding `O=S(=O)(O)c1ccc2c(N=Nc3ccc(S(=O)(=O)O)c4ccccc34)c(O)c(S(=O)(=O)O)cc2c1`, the TGI in assay [1], in assay [2] and in assay [3] was above 100 µM throughout.
In the case of `Nc1nc(Cl)c2ncn(Cc3cccc(CCl)c3)c2n1`, the figures for the concentration for total growth inhibition (TGI) in assay [1], in assay [2] and in assay [3] were above 31 µM, 6.15 µM and 13.4 µM, respectively.
For the compound `CCOC(=O)CSC1NC(C(=O)OC)CC1OC` (stereo unspecified), the TGI in assay [1] and in assay [2] was above 100 µM throughout.
As to `COC(=O)c1c(O)ccc2c1c1c(n2Cc2ccccc2OC)C(=O)c2ccccc2C1=O`, the TGI came out at 43.7 µM in assay [1], 24.4 µM in assay [2] and 26.3 µM in assay [3].
For `CCOC(=O)NN(C(=O)OCC)C(=C(C1=CCCCC1)N1CCOCC1)N(NC(=O)OCC)C(=O)OCC` the same measures were above 100 µM, above 100 µM and above 100 µM.
The like results for `CC(NC1=CC(=O)c2cccnc2C1=O)C(O)c1ccccc1` (stereo unspecified) were, in that order, 3.04 µM, 13.2 µM and 3.16 µM.
The like results for `Cc1nc2cc3ccccc3cc2[nH]c1=O` were, in that order, above 100 µM, above 100 µM and above 100 µM.
In the case of `O=[N+]([O-])c1cc(-[n+]2cc([O-])on2)ccc1Cl`, the results for the concentration for total growth inhibition (TGI) in assay [1], in assay [2] and in assay [3] were 43.3 µM, 30.7 µM and 33.7 µM, respectively.
The like results for `COc1ccc(CCNC(=O)c2ccccc2C2c3ccc(OCc4ccccc4)cc3Oc3cc(OCc4ccccc4)ccc32)cc1OC` were, in that order, above 100 µM, above 100 µM and above 100 µM.
For `COc1ccccc1/C=C1\S/C(=N/Nc2nc(C)c(C(C)=O)s2)NC1=O` the same measures were 67 µM, above 100 µM and above 100 µM.
As to `O=c1[nH][nH]c(=O)n1/N=C/c1ccccc1`, the TGI in assay [1], in assay [2] and in assay [3] was above 100 µM throughout.
For `Cc1ccc(S(=O)(=O)N/N=C2\CCC3(O)CC2(C)CCC2C3CC2(C)C)cc1` (stereo unspecified), the concentration for total growth inhibition (TGI) in assay [1], in assay [2] and in assay [3] was above 100 µM throughout.
With `Cc1ccc(S(=O)(=O)N/N=C2\CCCCCCCCCCC2CN(C)C)cc1` (stereo unspecified), the figures for the TGI in assay [1], in assay [2] and in assay [3] were 31 µM, 29.3 µM and 31.5 µM, respectively.
Take `CCc1c(CNC2=NCCN2)c(CC)c(CNC2=NCCN2)c(CC)c1CNC1=NCCN1`: the TGI in assay [1] and in assay [2] was above 100 µM throughout.
As for `Nc1cc2ncnn2c(SCC(=O)N/N=C/C(Br)=C\c2ccccc2)n1`, the TGI in assay [1] was 38.8 µM; in assay [2], 20.7 µM; in assay [3], 45.6 µM.
In the case of `CCOC(=O)CCC(NC(=O)c1ccc(Oc2nc3c(N)cc(C(F)(F)F)cc3nc2-c2ccccc2)cc1)C(=O)OCC` (stereo unspecified), the TGI in assay [1], in assay [2] and in assay [3] was above 100 µM each time.
For `COC1=C2CC(C)CC(OC)C(OC(=O)CN)[C@H](C)/C=C(\C)C(OC(N)=O)C(OC)/C=C\C=C(/C)C(=O)NC(=CC1=O)C2=O` (stereo partly specified), the TGI in assay [1] amounted to 2.01 µM; in assay [2] it was 12.6 µM; in assay [3], 0.828 µM.
The like results for `CO[C@]12S[C@@H]3CCCC[C@@]31C(C)(C)C(=O)N2c1ccccc1` were, in that order, above 100 µM, above 100 µM and above 100 µM.
Regarding `CCOC(=O)c1c(N2CCCC2)[nH]c(=O)c(C(c2ccc(Cl)c([N+](=O)[O-])c2)c2c(O)c(C(=O)OCC)c(N3CCCC3)[nH]c2=O)c1O`, the TGI in assay [1] is above 100 µM; in assay [2] it was 36.9 µM; in assay [3], 49.4 µM.
For `CC(=O)Oc1c2ccsc2c(OC(C)=O)c2ccsc12` the same measures were 2.31 µM, 2.45 µM and 0.357 µM.
For `O=C(CSCC(=O)N/N=C\c1ccc(O)c(O)c1O)N/N=C\c1ccc(O)c(O)c1O` the same measures were 57.4 µM, 19.2 µM and 4.76 µM.
For `COC(=O)Cc1c([C@H]2[C@H](CC(=O)OC)c3ccccc3N2S(=O)(=O)c2ccc(C)cc2)[nH]c2ccccc12` the same measures were above 100 µM, above 100 µM and above 100 µM.
`CCOC(=O)/C(C(=S)NCc1ccccc1)=C(/N)N1CCCC1`: the concentration for total growth inhibition (TGI) in assay [1], in assay [2] and in assay [3] was above 100 µM in each case.
Take `C=CCN1C[C@H](C)N([C@H](c2ccc(C(=O)N(CC)CC)cc2)c2cccc(OC)c2)C[C@H]1C`: the TGI in assay [1] and in assay [2] was above 100 µM throughout.
Turning to `c1ccc(-c2c(-c3cccs3)[nH]c(-c3cccs3)c2-c2ccccn2)nc1`, the total growth inhibition concentration (TGI) in assay [2] was 48.7 µM; in assay [3] it was 37.1 µM.
Take `CCC/C(Cl)=N/OC(NC(=O)OCC)(C(F)(F)F)C(F)(F)F`: the TGI in assay [1] was 43.5 µM; in assay [2], above 100 µM; in assay [3], 35.4 µM.
As to `CN1C(=O)C(C(=O)Nc2ccccn2)C2C[C@@]1(C)Oc1ccccc12` (stereo partly specified), the TGI in assay [2] and in assay [3] was above 100 µM each time.
In the case of `Cc1cc(S(=O)(=O)Nc2nnc3ccccn23)c(S)cc1Cl`, the concentration for total growth inhibition (TGI) in assay [1], in assay [2] and in assay [3] was above 100 µM each time.
For the compound `C=CCOCn1cc(F)c(=O)[nH]c1=O`, the concentration for total growth inhibition (TGI) in assay [1] and in assay [3] was above 100 µM each time.
On to `CCNC1=C(NC(=O)c2ccccc2)C(=O)c2ccccc2C1=O`, for which the total growth inhibition concentration (TGI) in assay [1] and in assay [2] was above 100 µM each time.
